# Measurements as given in patent publication US20260069657A1, “Haptoglobulin for Use in Treating or Preventing Exaggerated Erectile Response or Erectile Dysfunction” (CSL Behring AG, priority 2022, published 2026).
# Experiments:
# Format in all cases: in vivo, mouse
# 3-nitrotyrosine = assay: Western blot of penis homogenates, 3-nitrotyrosine; details: SCD mice, haptoglobin 400 mg/kg s.c. 1 month, vs SCD-vehicle
# Protocol: (§1) All mice strains were originally purchased from Jackson Laboratories (Bar Harbor, ME). Characterization and breeding were performed at the Multidisciplinary Center for the Investigation of Biological Science in Laboratory Animals of University of Campinas. C57BL/6 male mice (wild-type, WT) and Berkeley transgenic SCD mice, aged 3 to 4 months-old, were used. Mice were housed three per cage on a 12 h light-dark cycle. SCD male mice were treated with treatment with haptoglobin (400 mg/kg, subcutaneous) or vehicle of Monday, Wednesday and Friday for a period of 1 month (24).
# (§2) Corpus cavernosum tissue was homogenized in lysis buffer and centrifuged at 12,000 g for 20 minutes at 4° C. Homogenates containing […] total proteins were run on 4-20% Tris-HCl gels (Bio-Rad Laboratories, Hercules, CA, USA) and transferred to a nitrocellulose membrane. Nonfat dry milk 5% (Bio-Rad) in Tris-buffered saline/Tween was used for 1 hour at 24° C. to block nonspecific binding sites. […] Densitometry was analyzed using the Image J Software (National Institute of Health, Bethesda-MD, USA). Quantified densitometry results were normalized to β-actin. Quantified densitometry results of eNOS phosphorylated at Ser1177 were normalized to total eNOS.
# [1] = test system: corpus cavernosum strips from SCD mice; assay: Electrical-field stimulation (EFS)-induced nitrergic relaxations of cavernosal strips; details: 2-32 Hz, guanethidine and atropine pretreated strips, haptoglobin 400 mg/kg s.c. 1 month
# Protocol: as §1
# EFS was applied on cavernosal strips placed between two platinum ring electrodes connected to a Grass S88 stimulator (Astro-Med Industrial Park, RI, USA). EFS was conducted at 50 V, 1 ms pulse width and trains of stimuli lasting 10 sec at varying frequencies. In order to study the nitrergic cavernosal relaxations, tissues were pretreated with guanethidine (3×10^−5 M; to deplete the catecholamine stores of adrenergic fibers) and atropine (10^−6 M; to produce muscarinic antagonism) for 30 minutes prior to pre-contraction with phenylephrine (10^−5 M). When a stable contraction level was attained, a series of EFS-induced relaxations were constructed (2-32 Hz).
# ROCK2 = assay: Western blot of penis homogenates, ROCK2; details: SCD mice, haptoglobin 400 mg/kg s.c. 1 month; normalized to β-actin
# Protocol: as §1, §2
# p-eNOS (Ser-1177) = assay: Western blot of penis homogenates, p-eNOS (Ser-1177); details: SCD mice, haptoglobin 400 mg/kg s.c. 1 month; normalized to eNOS; P<0.05
# Protocol: as §1, §2
# eNOS = assay: Western blot of penis homogenates, eNOS; details: SCD mice, haptoglobin 400 mg/kg s.c. 1 month; normalized to β-actin; P<0.05
# Protocol: as §1, §2
# [2] = test system: corpus cavernosum strips from SCD mice; assay: Concentration-response contraction curves to phenylephrine and KCl in cavernosal strips; details: SCD mice treated with haptoglobin 400 mg/kg s.c. 1 month, mean ± SEM
# Protocol: as §1
# Strips of mouse corpus cavernosum were mounted in a 7-ml organ system containing Krebs solution at 37° C., continuously bubbled with a mixture of 95% O2 and 5% CO2 (pH 7.4), and suspended between two metal hooks. One hook was connected to a force transducer and the other acted as a fixed attachment point. Tissues were allowed to equilibrate for 60 min under a resting tension of 2.5 mN. Isometric force was recorded using a PowerLab 400™ data acquisition system (Software LabChart, version 7.0, AD Instrument, MA, USA). Cumulative concentration-response curves were constructed for the muscarinic agonist acetylcholine (ACh; 10^−9 to 10^−5 M) and sodium nitroprusside (SNP; 10^−8 to 10^−4 M) in cavernosal strips pre-contracted with phenylephrine (10^−5 M). […]
# cGMP = assay: Determination of basal cGMP levels in penis (enzyme immunoassay); details: SCD mice, haptoglobin treatment, vs SCD-vehicle, P<0.05
# Protocol: as §1
# Quantitative assays for cGMP were performed using a commercial enzyme immunoassay kit (Cayman Chemical Cyclic GMP EIA kit, Ann Arbor, MI, USA). For penile cGMP content, frozen penile tissue was homogenized in 5% trichloroacetic acid and centrifuged. TCA was extracted from the supernatant with three washes of water-saturated ether. cGMP was expressed as pmol/mg tissue.
# ROCK1 = assay: Western blot of penis homogenates, ROCK1; details: SCD mice, haptoglobin 400 mg/kg s.c. 1 month; compared to WT-vehicle
# Protocol: as §1, §2
# [3] = test system: corpus cavernosum strips from SCD mice; assay: Concentration-response relaxation curves to ACh and SNP in cavernosal strips pre-contracted with phenylephrine
# Protocol: as §1
# Strips of mouse corpus cavernosum were mounted in a 7-ml organ system containing Krebs solution at 37° C., continuously bubbled with a mixture of 95% O2 and 5% CO2 (pH 7.4), and suspended between two metal hooks. One hook was connected to a force transducer and the other acted as a fixed attachment point. Tissues were allowed to equilibrate for 60 min under a resting tension of 2.5 mN. Isometric force was recorded using a PowerLab 400™ data acquisition system (Software LabChart, version 7.0, AD Instrument, MA, USA). Cumulative concentration-response curves were constructed for the muscarinic agonist acetylcholine (ACh; 10^−9 to 10^−5 M) and sodium nitroprusside (SNP; 10^−8 to 10^−4 M) in cavernosal strips pre-contracted with phenylephrine (10^−5 M). Cumulative concentration-response curves to the contractile agent phenylephrine (α1-adrenergic receptor agonist, 10^−8 to 3×10^−4 M) and KCl (3×10^−4 to 3×10^−1 M) were obtained in cavernosal strips. Nonlinear regression analysis to determine the pEC50 was carried out using GraphPad Prism (GraphPad Software, San Diego, CA, USA).
# [4] = test system: NADPH oxidase subunit gp91phox; assay: Western blot of penis homogenates, gp91phox; details: SCD mice, haptoglobin 400 mg/kg s.c. 1 month; normalized to β-actin
# Protocol: as §1, §2
# 4-HNE = assay: Western blot of penis homogenates, 4-HNE; details: SCD mice, haptoglobin 400 mg/kg s.c. 1 month, vs SCD-vehicle
# Protocol: as §1, §2
# PDE5 = assay: Western blot of penis homogenates, PDE5; details: SCD mice, haptoglobin 400 mg/kg s.c. 1 month, vs SCD-vehicle
# Protocol: as §1, §2
# nNOS = assay: Western blot of penis homogenates, nNOS; details: SCD mice, haptoglobin 400 mg/kg s.c. 1 month; normalized to β-actin
# Protocol: as §1, §2
substance,measurement,setting,value
"Haptoglobin: Human haptoglobin (Hp) solution, a kind gift from CSL Behring; plasma glycoprotein that binds free hemoglobin",Reduction of protein level of 3-nitrotyrosine in penile tissue,3-nitrotyrosine,approximately 27%
same,Effect of treatment on EFS-induced relaxant responses,[1],reduced
same,Protein levels of ROCK2 in penis,ROCK2,fully restored
same,Protein level of p-eNOS (Ser-1177) in penis,p-eNOS (Ser-1177),normalized
same,Protein level of eNOS in penis,eNOS,normalized
same,Emax of KCl-induced contraction,"[2]; KCl, receptor-independent",0.30±0.07 mN
same,Emax of phenylephrine-induced contraction,[2]; phenylephrine 10^-8 to 3x10^-4 M,0.79±0.11 mN
same,Increase of basal cGMP levels in penis,cGMP,approximately 72%
same,Protein expression of ROCK1 in penis,ROCK1,not modified
same,Effect of treatment on raised SNP pEC50 value,"[3]; SCD mice, haptoglobin 400 mg/kg s.c., P<0.05",reversed
same,Effect of treatment on Emax produced by SNP,"[3]; SCD mice, haptoglobin 400 mg/kg s.c., vs SCD-vehicle",reduced
same,Effect of treatment on Emax values of ACh,"[3]; SCD mice, haptoglobin 400 mg/kg s.c., vs SCD-vehicle, P<0.05",reduced
same,Effect on potency (pEC50) for ACh among the groups,"[3]; WT-vehicle, SCD-vehicle, SCD-haptoglobin",No significant differences
same,"pEC50 of ACh relaxation curve, SCD-Haptoglobin","[3]; agonist ACh, cavernosal strips from SCD mice treated with haptoglobin 400 mg/kg s.c. Mon/Wed/Fri for 1 month, mean ± SEM",7.12
same,"Emax (%) of ACh relaxation curve, SCD-Haptoglobin","[3]; agonist ACh, relative to phenylephrine (10^-5 M) contraction = 100%, SCD mice, haptoglobin 400 mg/kg s.c. 3x/week, 1 month, mean ± SEM",42 ± 6 %
same,"pEC50 of SNP relaxation curve, SCD-Haptoglobin","[3]; agonist SNP, cavernosal strips from SCD mice treated with haptoglobin 400 mg/kg s.c. Mon/Wed/Fri for 1 month, mean ± SEM",6.08
same,"Emax (%) of SNP relaxation curve, SCD-Haptoglobin","[3]; agonist SNP, relative to phenylephrine (10^-5 M) contraction = 100%, SCD mice, haptoglobin 400 mg/kg s.c. 3x/week, 1 month, mean ± SEM",78 ± 4%
same,Protein levels of gp91phox in penis,[4],fully restored
same,Reduction of protein level of 4-HNE in penile tissue,4-HNE,~28%
same,Increase of protein level of PDE5 in penis,PDE5,approximately 52%
same,Protein expression of nNOS in penis,nNOS,not modified
